According to patent US20210045385A1, “PYRIDAZINONE-SUBSTITUTED KETOXIMES AS HERBICIDES” (FMC Corporation, priority 2018, published 2021):

Columns and labels:
Type in all cases: in vivo
[1] = system: Italian ryegrass (Lolium multiflorum); test: Test A preemergence, visual plant response rating; details: for Ryegrass, Italian plant response rating (0 to 100 scale): approx. 10 days; for Ryegrass, Italian plant response rating: 125 g ai/ha, preemergence, 0 to 100 scale, 0 no effect, 100 complete control
Outline: (§1)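 Greenhouse evaluation, approx. 10 days post-spray. Soil: loam + sand. Postemergence stage: 1–2 leaves, height 2–10 cm. Vehicle: non-phytotoxic solvent blend with surfactant. Score: visual injury on a 0 (no effect) to 100 (complete control) scale.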

[2] = system: barnyardgrass (Echinochloa crus-galli); test: Test A preemergence, visual plant response rating; details: for Barnyardgrass plant response rating (0 to 100 scale): approx. 10 days; for Barnyardgrass plant response rating: 125 g ai/ha, preemergence, 0 to 100 scale, 0 no effect, 100 complete control
Outline: as §1

[3] = system: foxtail, giant (giant foxtail, Setaria faberii); test: Test A preemergence, visual plant response rating; details: for Foxtail, Giant plant response rating (0 to 100 scale): approx. 10 days; for Foxtail, Giant plant response rating: 125 g ai/ha, preemergence, 0 to 100 scale, 0 no effect, 100 complete control
Outline: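 Greenhouse pot test in loam–sand soil mix: compound in a surfactant-containing non-phytotoxic solvent applied preemergence (directed soil spray) or postemergence (one- to two-leaf plants, 2–10 cm). Injury scored visually after ~10 days, 0–100.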

[4] = system: kochia (Kochia scoparia); test: Test A preemergence, visual plant response rating; details: for Kochia plant response rating (0 to 100 scale): approx. 10 days; for Kochia plant response rating: 125 g ai/ha, preemergence, 0 to 100 scale, 0 no effect, 100 complete control
Outline: as §1

[5] = system: pigweed (Amaranthus retroflexus); test: Test A preemergence, visual plant response rating; details: for Pigweed plant response rating (0 to 100 scale): approx. 10 days; for Pigweed plant response rating: 125 g ai/ha, preemergence, 0 to 100 scale, 0 no effect, 100 complete control
Outline: as §1

[6] = system: ragweed (common ragweed, Ambrosia elatior); test: Test A preemergence, visual plant response rating; details: for Ragweed plant response rating (0 to 100 scale): approx. 10 days; for Ragweed plant response rating: 125 g ai/ha, preemergence, 0 to 100 scale, 0 no effect, 100 complete control
Outline: as §1

[7] = system: Italian ryegrass (Lolium multiflorum); test: Test A postemergence, visual plant response rating; details: for Ryegrass, Italian plant response rating (0 to 100 scale): 500 g ai/ha, postemergence, 0 is no effect, 100 is complete control; for Ryegrass, Italian plant response rating: Postemergence, 125 g ai/ha, 0 to 100 scale (0 no effect, 100 complete control)
Outline: as §1

[8] = system: barnyardgrass (Echinochloa crus-galli); test: Test A postemergence, visual plant response rating; details: for Barnyardgrass plant response rating (0 to 100 scale): 500 g ai/ha, postemergence, 0 is no effect, 100 is complete control; for Barnyardgrass plant response rating: Postemergence, 125 g ai/ha, 0 to 100 scale (0 no effect, 100 complete control)
Outline: as §1

[9] = system: blackgrass (Alopecurus myosuroides); test: Test A postemergence, visual plant response rating; details: for Blackgrass plant response rating (0 to 100 scale): 500 g ai/ha, postemergence, 0 is no effect, 100 is complete control; for Blackgrass plant response rating: Postemergence, 125 g ai/ha, 0 to 100 scale (0 no effect, 100 complete control)
Outline: as §1

[10] = system: corn (Zea mays); test: Test A postemergence, visual plant response rating; details: for Corn plant response rating (0 to 100 scale): 500 g ai/ha, postemergence, 0 is no effect, 100 is complete control; for Corn plant response rating: Postemergence, 125 g ai/ha, 0 to 100 scale (0 no effect, 100 complete control)
Outline: as §1

[11] = system: foxtail, giant (giant foxtail, Setaria faberii); test: Test A postemergence, visual plant response rating; details: for Foxtail, Giant plant response rating (0 to 100 scale): 500 g ai/ha, postemergence, 0 is no effect, 100 is complete control; for Foxtail, Giant plant response rating: Postemergence, 125 g ai/ha, 0 to 100 scale (0 no effect, 100 complete control)
Outline: as §1

[12] = system: galium (catchweed bedstraw, Galium aparine); test: Test A postemergence, visual plant response rating; details: for Galium plant response rating (0 to 100 scale): 500 g ai/ha, postemergence, 0 is no effect, 100 is complete control; for Galium plant response rating: Postemergence, 125 g ai/ha, 0 to 100 scale (0 no effect, 100 complete control)
Outline: as §1

[13] = system: kochia (Kochia scoparia); test: Test A postemergence, visual plant response rating; details: for Kochia plant response rating (0 to 100 scale): 500 g ai/ha, postemergence, 0 is no effect, 100 is complete control; for Kochia plant response rating: Postemergence, 125 g ai/ha, 0 to 100 scale (0 no effect, 100 complete control)
Outline: as §1

[14] = system: pigweed (Amaranthus retroflexus); test: Test A postemergence, visual plant response rating; details: for Pigweed plant response rating (0 to 100 scale): 500 g ai/ha, postemergence, 0 is no effect, 100 is complete control; for Pigweed plant response rating: Postemergence, 125 g ai/ha, 0 to 100 scale (0 no effect, 100 complete control)
Outline: as §1

[15] = system: ragweed (common ragweed, Ambrosia elatior); test: Test A postemergence, visual plant response rating; details: for Ragweed plant response rating (0 to 100 scale): 500 g ai/ha, postemergence, 0 is no effect, 100 is complete control; for Ragweed plant response rating: Postemergence, 125 g ai/ha, 0 to 100 scale (0 no effect, 100 complete control)
Outline: as §1

[16] = system: wheat (Triticum aestivum); test: Test A postemergence, visual plant response rating; details: for Wheat plant response rating (0 to 100 scale): 500 g ai/ha, postemergence, 0 is no effect, 100 is complete control; for Wheat plant response rating: Postemergence, 125 g ai/ha, 0 to 100 scale (0 no effect, 100 complete control)
Outline: as §1

[17] = system: barnyardgrass (Echinochloa crus-galli); test: Test B flooded paddy test, visual plant response rating; details: 250 g ai/ha, Flood, applied to paddy water, 2-leaf stage, evaluated after 13 to 15 days
Outline: (§2)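 Rice, umbrella sedge, ducksalad and barnyardgrass grown to 2-leaf stage; pots flooded 3 cm above soil and compound applied directly to paddy water, depth maintained.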

[18] = system: ducksalad (Heteranhera limosa); test: as above; details: 250 g ai/ha, Flood, applied to paddy water, 2-leaf stage, evaluated after 13 to 15 days
Outline: as §2

[19] = system: rice (Oryza sativa); test: as above; details: 250 g ai/ha, Flood, applied to paddy water, 2-leaf stage, evaluated after 13 to 15 days
Outline: as §2

[20] = system: sedge, umbrella (small-flower umbrella sedge, Cyperus difformis); test: as above; details: 250 g ai/ha, Flood, applied to paddy water, 2-leaf stage, evaluated after 13 to 15 days
Outline: as §2

Compound	Ryegrass, Italian plant response rating (0 to 100 scale) ([1]; 500 g ai/ha Preemergence)	Barnyardgrass plant response rating (0 to 100 scale) ([2]; 500 g ai/ha Preemergence)	Foxtail, Giant plant response rating (0 to 100 scale) ([3]; 500 g ai/ha Preemergence)	Kochia plant response rating (0 to 100 scale) ([4]; 500 g ai/ha Preemergence)	Pigweed plant response rating (0 to 100 scale) ([5]; 500 g ai/ha Preemergence)	Ragweed plant response rating (0 to 100 scale) ([6]; 500 g ai/ha Preemergence)	Ryegrass, Italian plant response rating (0 to 100 scale) [7]	Ryegrass, Italian plant response rating [7]	Barnyardgrass plant response rating (0 to 100 scale) [8]	Barnyardgrass plant response rating [8]	Blackgrass plant response rating (0 to 100 scale) [9]	Blackgrass plant response rating [9]	Corn plant response rating (0 to 100 scale) [10]	Corn plant response rating [10]	Foxtail, Giant plant response rating (0 to 100 scale) [11]	Foxtail, Giant plant response rating [11]	Galium plant response rating (0 to 100 scale) [12]	Galium plant response rating [12]	Kochia plant response rating (0 to 100 scale) [13]	Kochia plant response rating [13]	further results
C#CCn1nc(C)c(O)c(C(=NOC)c2cccc(Cl)c2)c1=O (mixture of isomers) [Compound 3]	70	20	10	10	10	10	80	20	40	0	50	10	20	0	40	10	70	30	50	10	Ryegrass, Italian plant response rating (0 to 100 scale) ([1]; 125 g ai/ha Preemergence): 30; Barnyardgrass plant response rating (0 to 100 scale) ([2]; 125 g ai/ha Preemergence): 0; Foxtail, Giant plant response rating (0 to 100 scale) ([3]; 125 g ai/ha Preemergence): 0; Kochia plant response rating (0 to 100 scale) ([4]; 125 g ai/ha Preemergence): 10; Pigweed plant response rating (0 to 100 scale) ([5]; 125 g ai/ha Preemergence): 0; Ragweed plant response rating (0 to 100 scale) ([6]; 125 g ai/ha Preemergence): 10; Pigweed plant response rating (0 to 100 scale) [14]: 50; Pigweed plant response rating [14]: 20; Ragweed plant response rating (0 to 100 scale) [15]: 60; Ragweed plant response rating [15]: 20; Wheat plant response rating (0 to 100 scale) [16]: 10; Wheat plant response rating [16]: 0; Plant response rating, Barnyardgrass (0 to 100 scale, 0 is no effect, 100 is complete control) [17]: 0; Plant response rating, Ducksalad (0 to 100 scale, 0 is no effect, 100 is complete control) [18]: 0; Plant response rating, Rice (0 to 100 scale, 0 is no effect, 100 is complete control) [19]: 0; Plant response rating, Sedge, Umbrella (0 to 100 scale, 0 is no effect, 100 is complete control) [20]: 0
C#CCO/N=C(/c1c(O)c(C)nn(C)c1=O)c1ccc(F)c2ccccc12 [Compound 109, 4-[(E)-(4-fluoro-1-naphthalenyl)[(2-propyn-1-yloxy)imino]methyl]-5-hydroxy-2,6-dimethyl-3(2H)-pyridazinone]	100	100	100	50	100	100	100	100	90	90	100	90	70	20	90	80	100	100	90	70	Ryegrass, Italian plant response rating [1]: 100; Barnyardgrass plant response rating [2]: 90; Foxtail, Giant plant response rating [3]: 100; Kochia plant response rating [4]: 10; Pigweed plant response rating [5]: 100; Ragweed plant response rating [6]: 90; Pigweed plant response rating (0 to 100 scale) [14]: 100; Pigweed plant response rating [14]: 90; Ragweed plant response rating (0 to 100 scale) [15]: 90; Ragweed plant response rating [15]: 80; Wheat plant response rating (0 to 100 scale) [16]: 90; Wheat plant response rating [16]: 90; Plant response rating, Barnyardgrass (0 to 100 scale, 0 is no effect, 100 is complete control) [17]: 50; Plant response rating, Ducksalad (0 to 100 scale, 0 is no effect, 100 is complete control) [18]: 40; Plant response rating, Rice (0 to 100 scale, 0 is no effect, 100 is complete control) [19]: 45; Plant response rating, Sedge, Umbrella (0 to 100 scale, 0 is no effect, 100 is complete control) [20]: 60
CON=C(c1cccc(C#N)c1)c1c(O)c(C)nn(C)c1=O [Compound 57]	0	0	30	10	0	0	20	10	0	0	0	0	0	20	0	0	50	10	50	0	Ryegrass, Italian plant response rating [1]: 0; Barnyardgrass plant response rating [2]: 0; Foxtail, Giant plant response rating [3]: 0; Kochia plant response rating [4]: 0; Pigweed plant response rating [5]: 0; Ragweed plant response rating [6]: 0; Pigweed plant response rating (0 to 100 scale) [14]: 30; Pigweed plant response rating [14]: 30; Ragweed plant response rating (0 to 100 scale) [15]: 10; Ragweed plant response rating [15]: 0; Wheat plant response rating (0 to 100 scale) [16]: 10; Wheat plant response rating [16]: 0; Plant response rating, Barnyardgrass (0 to 100 scale, 0 is no effect, 100 is complete control) [17]: 15; Plant response rating, Ducksalad (0 to 100 scale, 0 is no effect, 100 is complete control) [18]: 0; Plant response rating, Rice (0 to 100 scale, 0 is no effect, 100 is complete control) [19]: 15; Plant response rating, Sedge, Umbrella (0 to 100 scale, 0 is no effect, 100 is complete control) [20]: 0
